This note sets out measurements from patent publication US20240010681A1, “PEPTIDES AND METHODS OF USE” (REALTA LIFE SCIENCES, INC., priority 2020, published 2024).

The data set can be described thus: Pharmacokinetics, metabolite profiles and excretion of [14C]-PIC1-dPEG24 after single IV dose. In kind it is in vivo, rat. As for the experimental part:
[…]. The six rats in Group 3 and Group 4 were further divided into two subgroups for serial blood collections at 10, 30 min and 1, 2, 3, 4, 6, 8, 24, and 48 hr. Blood was pooled by equal volume across animals at each time point, and aliquots (˜200 μL) of pooled blood were removed at each time point for total radioactivity, and the rest of blood samples were centrifuged to obtain plasma. Bile, urine, feces, and cage wash samples were collected up to 72 hr in bile duct cannulated (BDC) rats, and up to 168 hr in intact rats, and terminal blood samples were collected at the end of study (72 hr or 168 hr post-doses). The total radioactivity concentrations in the excreta, blood and plasma were determined by homogenization, combustion and/or liquid scintillation counting (LSC). The metabolite profiles and structure characterization were conducted in pooled plasma, urine, and bile samples using LC-UV/MS as well as radioactive detection. […].
The radioactive profiles of rat plasma samples for the low dose group and the high dose group were qualitatively similar.

A value given as a limit tells only on which side of the number the result lay.

As for `CC[C@H](C)[C@H](N)C(=O)N[C@@H](C)C(=O)N[C@@H](CC(C)C)C(=O)N[C@H](C(=O)N[C@@H](CC(C)C)C(=O)N[C@@H](CCC(=O)O)C(=O)N1CCC[C@H]1C(=O)N[C@H](C(=O)N[C@@H](CS)C(=O)N[C@@H](CS)C(=O)N[C@@H](CCC(N)=O)C(=O)N[C@@H](CCC(=O)O)C(=O)N[C@@H](CCCNC(=N)N)C(=O)N[C@@H](C)C(=O)N[C@@H](C)C(=O)NCCOCCOCCOCCOCCOCCOCCOCCOCCOCCOCCOCCOCCOCCOCCOCCOCCOCCOCCOCCOCCOCCOCCOCCOCCC(=O)O)[C@@H](C)CC)[C@@H](C)CC` [[^14C]-PIC1-dPEG24], the “unchanged parent compound in urine” value (20 and 200 mg/kg dose) is recorded as “not detectable”. For the same molecule, the “unchanged parent compound and M2768 together in pooled plasma” value (8 hr time point, small radioactive peak at 30 min post-IV-injection) is “still detectable”. Also, the “route of elimination of related radioactivity” value (male BDC and intact rats, single IV 20 and 200 mg/kg) is “urinary excretion was major route of elimination”. The half-life (rat, in vivo, intact rats, IV 20 and 200 mg/kg, read-out: plasma elimination half-lives for total radioactivity) is not below 40 h. The “dosed radioactivity recovered within 24 hr post-dose” value (single IV 20 or 200 mg/kg, mainly via urine) is recorded as > 70 % of the dose.
